Laboratory results reported in US9802880B2, “Cannabigerol derivatives” (VIVACELL BIOTECHNOLOGY ESPAÑA S.L., priority 2014, dated 2017).

Columns and labels:
PPARg [1] = experiment: PPARg transactivation assay in HEK-293 cells (GAL4-PPARγ / GAL4-luc); details: for increase of PPARg activity: 1 μM concentration; for PPARg activation (fold) compared with CBG-Q: HEK-293 cells, 6 h treatment, FIG. 1; for PPARg transactivation (luciferase activity, fold induction over untreated cells): increasing doses, 6 h
PPARg [2] = experiment: PPARg transactivation assay in human dermal primary fibroblasts; type: cell-based; details: 6 h treatment, FIG. 2
Source text: FIG. 2. PPARg Transactivation Assays in Human Dermal Primary Fibroblasts.

N2a cells = experiment: Neuroprotection assay, glutamate-induced excitotoxicity in N2a cells; type: cell-based; details: 1 h pre-incubation, then 5 mM glutamate 24 h, FIG. 5
Experimental: N2a cells were pre-incubated for 1 h with compounds (II) to (V) and (XII) at the indicated concentrations. Then, cells were treated for 24 h with 5 mM glutamate to induce excitotoxicity, or cytotoxicity in neuronal cells induced by neurotransmitters. Cell viability was quantified by MTT assay. […] Control was set as 100% and data were referred to that value.
Cultured N2A cells were pre-incubated with the compounds II, III, IV, V and XII at the indicated concentrations for 1 h and then treated with 5 mM glutamate to induce excitotoxicity during 24 h (FIG. 5). Cytotoxicity was determined by the MTT method as described in example 3. Results are shown as mean±S.D. from at least three independent experiments, and expressed as percentage of cell viability against the control sample (−). Control was set as 100% and data were referred to that value.

[3] = text refers to FIG. 1 and FIG. 2

Compound | increase of PPARg activity (PPARg [1]; [3]) | PPARg activation (fold) compared with CBG-Q (PPARg [1]) | potency to activate PPARg compared with CBG-Q (PPARg [1]; concentrations of 1 to 25 μM, text refers to FIG. 1 and FIG. 2) | PPARg activation (fold) compared with CBG-Q (PPARg [2]) | protection from glutamate-induced cytotoxicity (cell viability, MTT) (N2a cells) | PPARg transactivation (luciferase activity, fold induction over untreated cells) (PPARg [1]; [3])
CCCCCC1=C(C(=O)OC)C(=O)C(C/C=C(\C)CCC=C(C)C)=C(O)C1=O [Compound II, 6-(3,7-dimethyl-octa-2,6-dienyl)-5-hydroxy-3-pentyl-2-metoxycarbonil-[1,4]benzoquinone] | ≤ 12 times | higher efficiency than CBG-Q | significantly more potent than compound CBG-Q | higher efficiency than CBG-Q | protect neuronal cells from glutamate-induced apoptosis | –
CCCCCNC1=C(CCCCC)C(=O)C(O)=C(C/C=C(\C)CCC=C(C)C)C1=O [Compound IV, 6-(3,7-dimethyl-octa-2,6-dienyl)-5-hydroxy-3-pentyl-2-pentylamino-[1,4]benzoquinone] | – | higher efficiency than CBG-Q | – | higher efficiency than CBG-Q | protect neuronal cells from glutamate-induced apoptosis | most active compounds
CCCCCC1=C(NCC(C)C)C(=O)C(C/C=C(\C)CCC=C(C)C)=C(O)C1=O [Compound V, 6-(3,7-dimethyl-octa-2,6-dienyl)-5-hydroxy-3-pentyl-2-isobutylamino [1,4]benzoquinone] | – | higher efficiency than CBG-Q | – | higher efficiency than CBG-Q | protect neuronal cells from glutamate-induced apoptosis | most active compounds
CCCCCC1=C(NC)C(=O)C(C/C=C(\C)CCC=C(C)C)=C(O)C1=O [Compound VII, 6-(3,7-dimethyl-octa-2,6-dienyl)-5-hydroxy-3-pentyl-2-methylamino-[1,4]benzoquinone] | – | higher efficiency than CBG-Q | – | – | – | –
CCCCCC1=C(NC(C)C)C(=O)C(C/C=C(\C)CCC=C(C)C)=C(O)C1=O [Compound VIII, 6-(3,7-imethyl-octa-2,6-dienyl)-5-hydroxy-3-pentyl-2-isopropylamino-[1,4]benzoquinone] | – | higher efficiency than CBG-Q | – | – | – | –
CN(CCOc1ccc(CC2SC(=O)NC2=O)cc1)c1ccccn1 (stereo not shown) [Rosiglitazone, reference compound] | more than 100 times | – | – | – | – | –
